Here are results for seven compounds from patent publication US7879900B2, “3-aminocarbazole compounds, pharmaceutical composition containing the same and method for the preparation thereof” (Aziende Chimiche Riunite Angelini Francesco A.C.R.A.F. …, priority 2005, dated 2011).

Bounds are passed on as bounds.

The subject of one data set is production of PGE2. The data set can be described thus: Inhibition of PGE2 production in IL-1β-stimulated A549 cells (EIA). It is filed as cell-based. The conditions noted are these: Homo sapiens, IL-1β 1 ng/ml, 18 hours; for inhibition at 10 µM: compound 10 μM, na = not active at the experimental concentration; for IC50: negative logarithm of IC50, read-out: pIC50 PGE2 (converted). The text has this:
(§1) This test allows evaluation of the inhibitory capability on the production of the PGE2 prostaglandins and the selectivity relative to the production of the PGF2α prostaglandins.
(§2) The cell line A549, human pulmonary adenocarcinoma, was used, which is particularly sensitive to stimulation with pro-inflammatory cyokines, for instance IL-1β, and, in response to this stimulation, is particularly active in the production and release of two prostanoids: PGE2 and PGF2α (Thoren S. Jakobsson P-J, 2000).
(§3) The cells were stimulated with IL-1β, (1 ng/ml) and simultaneously treated with the test compound for 18 hours in an appropriate culture medium (DMEM—Dulbecco's Modified Eagle's Medium) supplemented with 5% foetal calf serum and L-glutamine (4 mM final) in an incubator at 37° C. and at a CO2 concentration of 5%.
(§4) After the incubation, the amount of PGE2 and PGF2α produced and released into the supernatant were assayed using an EIA kit (produced and sold by Cayman Chemicals, Ann Arbor, Mich., USA).
(§5) The comparative compounds used were indomethacin (Sigma-Aldrich), a non-steroidal anti-inflammatory drug that inhibits in equal measure both PGE2 and PGF2α, and also the compounds of formula (I) in which R1=CH3CH2, R2=OH, R3=R4=R5=R6=X=Y=H (comparative compound A) and R1=CH3CH2, R2=SCH3, R3=R4=R5=R6=X=Y=H (comparative compound B). […]

The subject of a further data set is production of PGF2α. As to the kind of experiment: Inhibition of PGF2α production in IL-1β-stimulated A549 cells (EIA). Type of data set: cell-based. The conditions noted are these: Homo sapiens, IL-1β 1 ng/ml, 18 hours; for inhibition at 10 µM: compound 10 μM, na = not active at the experimental concentration; for IC50: negative logarithm of IC50, read-out: pIC50 PGF2α (converted).
Excerpt: as §1, §2, §3, §4, §5

In a further data set the test system is production of PGI2. The data set can be described thus: Test on human primary endothelial cells (HUVEC): inhibition of PGI2 production. Type of data set: cell-based. The conditions noted are these: for Inhibition (%) of PGI2: compound at LogM −5, relative to control. As for the experimental part:
This test allows evaluation of the capability of the compounds of the invention to inhibit the production of PGI2.
The absence of inhibitory activity on this prostanoid can ensure maintenance of the vasoprotective action of the PGI2 prostanoids and provide useful pharmacological information regarding the absence of adverse side effects on the endothelium.
The action of the test compounds is evaluated in HUVEC cells under basal conditions and conditions of stimulation (J. Immunol. 1989, Jun. 1; 142(11): 3993-9).
The results are given as a percentage of inhibition relative to the control enzymatic activity.
Indomethacin is used as reference compound.

For `Cn1c2ccccc2c2cc(NC(=O)c3ccccc3Cl)ccc21` [Compound 1, 2-chloro-N-(9-methyl-9H-carbazol-3-yl)benzamide], the melting point was 206 °C. The inhibition at 10 µM with production of PGE2 was 59%. This compound gave an inhibition at 10 µM in the data set with production of PGF2α of 27%.

Consider `CC(C)n1c2ccccc2c2cc(NC(=O)c3ccccc3Cl)ccc21` [Compound 2, 2-chloro-N-[9-(1-methylethyl)-9H-carbazol-3-yl]benzamide], for which the melting point stood at 195 °C. In the data set with production of PGE2, at 10 µM the inhibition was 90% and the IC50 is 0.794 µM. In the data set with production of PGF2α, 10 µM produced 66% inhibition and the IC50 was 10 µM. In the data set on production of PGI2, the “Inhibition (%) of PGI2” value was 31%.

Consider `O=C(Nc1ccc2c(c1)c1ccccc1n2Cc1ccccc1)c1ccccc1Cl` [Compound 3, 2-chloro-N-[9-(phenylmethyl)-9H-carbazol-3-yl]benzamide], for which, in the data set with production of PGE2, the inhibition at 10 µM stood at 86% and the IC50 is 1.26 µM. In addition, in the data set on production of PGF2α, the inhibition at 10 µM is 7% and the IC50 was above 100 µM.

The compound `CCn1c2ccccc2c2cc(NC(=O)c3ccccc3C(F)(F)F)ccc21` [Compound 4, N-(9-ethyl-9H-carbazol-3-yl)-2-(trifluoromethyl)benzamide] gave a melting point of 206 to 207 °C. Moreover, in the data set with production of PGE2, the inhibition at 10 µM was 67% and the IC50 was 0.631 µM. In the data set on production of PGF2α, the inhibition at 10 µM amounted to 0% and the IC50 is 100 µM. Moreover, the “Inhibition (%) of PGI2” value in the data set on production of PGI2 is on record as 21%.

On to `CCn1c2ccccc2c2cc(NC(=O)c3c(C)cccc3C)ccc21` [Compound 5, N-(9-ethyl-9H-carbazol-3-yl)-2,6-dimethylbenzamide], for which the melting point is 192 to 193 °C. In addition, 10 µM produced 93% inhibition in the data set on production of PGE2. For the same compound, the inhibition at 10 µM in the data set with production of PGF2α was determined as 60%.

Turning to `CCn1c2ccccc2c2cc(NC(=O)c3ccccc3O)ccc21` [Compound A, N-(9-ethyl-9H-carbazol-3-yl)-2-hydroxybenzamide, reference compound], the inhibition at 10 µM amounted to 88% in the data set on production of PGE2 and 84% in the data set on production of PGF2α.

On to `COc1ccc2c(c1)c(CC(=O)O)c(C)n2C(=O)c1ccc(Cl)cc1` [indomethacin, reference compound], for which the inhibition at 10 µM in the data set with production of PGE2 and with production of PGF2α was 100% throughout. Besides, the IC50 in the data set on production of PGE2 was 0.00501 µM; in the data set with production of PGF2α it was 0.00251 µM; in the data set with production of PGI2 (Homo sapiens, PGI2, printed as a negative logarithmic figure, read-out: IC50 (comparison compound) (converted)), 0.01 µM.

As a reminder, the inhibition is the relative decrease from the control value, in per cent. A low value points to little suppression. As a reminder, the melting point is the temperature of the solid-liquid transition.
